Assay results: patent US12662451B2, “Chemical compounds and uses thereof” (GLAXOSMITHKLINE INTELLECTUAL PROPERTY (NO.4) LIMITED, priority 2023, dated 2026)

Columns and labels:
[1] = biological target: T1, recombinant full-length WRN protein (1-1432) (Homo sapiens, UniProt Q14191); assay: WRN unwinding activity, fluorogenic 384-well assay (Example A); type: biochemical; conditions: WRN unwinding activity, 4 hr; Table 2; read-out: 4 hr UNW pIC50 (converted)
T1 construct: recombinant full-length WRN protein (1-1432)
Summary of the method: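 Read-out is end-point unwinding of a fluorophore/quencher duplex (ex 525, em 598 nm) after 60 min with 200 μM ATP and 12 nM DNA (2× stocks), EDTA stop. Compound first sat 4 h with 200 pM WRN (2× stock) in pH 8.0 Tris buffer; four-parameter fit gives pIC50.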

[2] = system: SW48 human colorectal cancer cells (MSI-H cancer cells); assay: SW48 cell viability, CellTiter-Glo, 120 hours (Example B); conditions: Table 2; for CC50: Homo sapiens, SW48, 120 h, read-out: SW48 pCC50, SW48 cell viability, 120 hours incubation (converted)

T1 sequence (Q14191 whole entry): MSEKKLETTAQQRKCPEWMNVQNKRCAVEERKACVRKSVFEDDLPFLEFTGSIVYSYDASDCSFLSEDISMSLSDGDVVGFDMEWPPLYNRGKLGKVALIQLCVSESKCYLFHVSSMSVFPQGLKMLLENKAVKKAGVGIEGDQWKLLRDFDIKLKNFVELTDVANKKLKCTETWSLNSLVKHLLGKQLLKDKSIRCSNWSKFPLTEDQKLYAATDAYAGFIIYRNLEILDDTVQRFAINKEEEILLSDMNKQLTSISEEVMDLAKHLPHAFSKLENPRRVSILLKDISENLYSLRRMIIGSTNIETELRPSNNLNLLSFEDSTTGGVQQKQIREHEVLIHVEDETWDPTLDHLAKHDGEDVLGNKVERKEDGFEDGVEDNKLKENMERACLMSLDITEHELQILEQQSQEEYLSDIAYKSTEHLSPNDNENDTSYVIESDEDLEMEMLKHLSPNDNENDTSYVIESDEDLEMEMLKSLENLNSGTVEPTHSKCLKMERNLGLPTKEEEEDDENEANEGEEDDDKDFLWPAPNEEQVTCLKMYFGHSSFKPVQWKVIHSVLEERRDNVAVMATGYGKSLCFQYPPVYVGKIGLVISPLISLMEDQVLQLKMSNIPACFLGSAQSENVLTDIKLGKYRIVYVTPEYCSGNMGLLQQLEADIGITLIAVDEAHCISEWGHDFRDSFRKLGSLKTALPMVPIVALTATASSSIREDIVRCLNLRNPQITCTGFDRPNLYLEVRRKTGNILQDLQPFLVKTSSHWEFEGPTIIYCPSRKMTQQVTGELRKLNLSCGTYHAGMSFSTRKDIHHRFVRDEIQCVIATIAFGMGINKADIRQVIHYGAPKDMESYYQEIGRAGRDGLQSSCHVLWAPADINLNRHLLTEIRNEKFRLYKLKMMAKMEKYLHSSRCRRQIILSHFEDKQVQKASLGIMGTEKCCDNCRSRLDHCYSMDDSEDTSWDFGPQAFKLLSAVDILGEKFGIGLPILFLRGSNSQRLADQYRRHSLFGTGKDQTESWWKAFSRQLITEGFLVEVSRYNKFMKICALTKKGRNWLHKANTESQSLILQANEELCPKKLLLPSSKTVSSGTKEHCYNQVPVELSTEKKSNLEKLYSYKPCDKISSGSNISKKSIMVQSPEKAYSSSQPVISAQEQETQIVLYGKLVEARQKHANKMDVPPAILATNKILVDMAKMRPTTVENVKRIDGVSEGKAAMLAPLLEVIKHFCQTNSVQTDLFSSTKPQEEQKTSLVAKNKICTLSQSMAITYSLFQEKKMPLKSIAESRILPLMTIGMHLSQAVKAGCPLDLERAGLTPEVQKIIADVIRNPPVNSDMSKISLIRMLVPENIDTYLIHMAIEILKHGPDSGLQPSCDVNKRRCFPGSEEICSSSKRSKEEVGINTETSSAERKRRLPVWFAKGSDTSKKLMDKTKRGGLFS

Structure (SMILES) | IC50 [1] | CC50 [2] | SW48 pCC50 ([2]; SW48 cell viability, 120 hours incubation)
CCO[C@@H]1C[C@H](C(=O)Nc2ccc(C(F)(F)F)cn2)[C@@H](C(=O)O)[C@H](c2ccc(N(C)S(=O)(=O)c3ccc4c(c3)nc(C)n4C)cc2)C1 (relative stereo) [Example 156, rel-(1R,2R,4R,6S)-4-ethoxy-2-((5-(trifluoromethyl)pyridin-2-yl)carbamoyl)-6-(4-((N,1,2-trimethyl-1H-benzo[d]imidazole)-5-sulfonamido)phenyl)cyclohexane-1-carboxylic acid] | 126 nM | 25.1 µM | –
Cc1nc2cc(S(=O)(=O)N(C)c3cnc([C@@H]4CCC[C@H](C(=O)Nc5ccc(C(F)(F)F)cc5F)[C@H]4C(=O)O)cn3)ccc2n1C (relative stereo) [Example 165, rel-(1R,2R,6S)-2-((2-fluoro-4-(trifluoromethyl)phenyl)carbamoyl)-6-(5-((N,1,2-trimethyl-1H-benzo[d]imidazole)-5-sulfonamido)pyrazin-2-yl)cyclohexane-1-carboxylic acid] | 25.1 nM | 25.1 µM | –
Cc1nc2cc(S(=O)(=O)N(C)c3ccc([C@H]4C[C@@H](OCC5COC5)C[C@@H](C(=O)Nc5ccc(C(F)(F)F)cc5F)[C@@H]4C(=O)O)cc3)ccc2n1C (relative stereo) [Example 282, rel-(1R,2R,4R,6S)-2-((2-fluoro-4-(trifluoromethyl)phenyl)carbamoyl)-4-(oxetan-3-ylmethoxy)-6-(4-((N,1,2-trimethyl-1H-benzo[d]imidazole)-5-sulfonamido)phenyl)cyclohexane-1-carboxylic acid] | 1.58 nM | 0.0631 µM | –
COC12CC(CO[C@@H]3C[C@H](C(=O)Nc4ccc(C(F)(F)F)cc4F)[C@@H](C(=O)O)[C@H](c4ccc(N(C)S(=O)(=O)c5ccc6c(c5)nc(C)n6C)cc4)C3)(C1)C2 (relative stereo) [Example 331, rel-(1R,2R,4R,6S)-2-((2-fluoro-4-(trifluoromethyl)phenyl)carbamoyl)-4-((3-methoxybicyclo[1.1.1]pentan-1-yl)methoxy)-6-(4-((N,1,2-trimethyl-1H-benzo[d]imidazole)-5-sulfonamido)phenyl)cyclohexane-1-carboxylic acid] | 251 nM | 20 µM | –
Cc1nc2cc(S(=O)(=O)N(C)c3ccc([C@@H]4C[C@H](N5CCOCC5)C[C@H](C(=O)Nc5ccc(C(F)(F)F)cc5F)[C@H]4C(=O)O)cc3)ccc2n1C (relative stereo) [Example 338, rel-(1R,2R,4R,6S)-2-((2-fluoro-4-(trifluoromethyl)phenyl)carbamoyl)-4-morpholino-6-(4-((N,1,2-trimethyl-1H-benzo[d]imidazole)-5-sulfonamido)phenyl)cyclohexane-1-carboxylic acid] | 79.4 nM | 15.8 µM | –
Cc1nc2cc(S(=O)(=O)N(C)c3ccc([C@H]4C[C@@H](N5CCCCC5)C[C@@H](C(=O)Nc5ccc(C(F)(F)F)cc5F)[C@@H]4C(=O)O)cc3)ccc2n1C (relative stereo) [Example 348, rel-(1R,2R,4R,6S)-2-((2-fluoro-4-(trifluoromethyl)phenyl)carbamoyl)-4-(piperidin-1-yl)-6-(4-((N,1,2-trimethyl-1H-benzo[d]imidazole)-5-sulfonamido)phenyl)cyclohexane-1-carboxylic acid] | 1.58 nM | 0.398 µM | –
Cc1nc2cc(S(=O)(=O)N(C)c3ccc([C@H]4C[C@@H](N5CC6(F)CC5C6)C[C@@H](C(=O)Nc5ccc(C(F)(F)F)cc5F)[C@@H]4C(=O)O)cc3)ccc2n1C (relative stereo) [Example 398, rel-(1R,2R,4R,6S)-2-((2-fluoro-4-(trifluoromethyl)phenyl)carbamoyl)-4-(4-fluoro-2-azabicyclo[2.1.1]hexan-2-yl)-6-(4-((N,1,2-trimethyl-1H-benzo[d]imidazole)-5-sulfonamido)phenyl)cyclohexane-1-carboxylic acid] | 100 nM | 25.1 µM | –
Cc1nc2cc(S(=O)(=O)N(C)c3ccc([C@H]4CCC[C@H](C(=O)Nc5ccc(C(C)C)cc5)[C@@H]4C(=O)O)cc3)ccc2n1C (single isomer, unassigned) [Example 73] | 1.26 nM | 3.98 µM | –
Cc1nc2cc(S(=O)(=O)N(C)c3ccc([C@H]4CCC[C@@H](C(=O)Nc5ccc(C(C)C)cc5)[C@H]4C(=O)O)cc3)ccc2n1C (single isomer, unassigned) [Example 77] | 3.98 nM | 3.98 µM | –
Cc1nc2cc(S(=O)(=O)N(C)c3ccc([C@H]4CCC[C@@H](C(=O)Nc5ccc(C(C)C)cc5)[C@@H]4C(=O)O)cc3)ccc2n1C (single isomer, unassigned) [Example 80] | 1.58 nM | 0.501 µM | –
Cc1nc2cc(S(=O)(=O)N(C)c3ccc([C@H]4C[C@@H](Oc5ccccc5)C[C@@H](C(=O)Nc5ccc(C(F)(F)F)cc5F)[C@@H]4C(=O)O)cc3)ccc2n1C (single isomer, unassigned) [Example 152] | 10 nM | 2 µM | –
Cc1nc2cc(S(=O)(=O)N(C)c3cnc([C@H]4CCC[C@@H](C(=O)Nc5ccc(C(F)(F)F)cc5F)[C@@H]4C(=O)O)cn3)ccc2n1C (single isomer, unassigned) [Example 164] | 1.26 nM | 2.51 µM | –
CN1CCC[C@H](c2cccc(S(=O)(=O)N(C)c3ccc([C@H]4CCC[C@@H](COc5ccc(C(F)(F)F)cc5)[C@@H]4C(=O)O)cc3)c2)C1 (single isomer, unassigned) [Example 217, rel-(1R,2S,6R)-2-(4-((N-methyl-3-((S*)-1-methylpiperidin-3-yl)phenyl)sulfonamido)phenyl)-6-((4-(trifluoromethyl)phenoxy)methyl)cyclohexane-1-carboxylic acid] | 126 nM | 10 µM | –

Further lines, with some results ahead:

IC50 [1] | Structure (SMILES) | CC50 [2] | SW48 pCC50 ([2]; SW48 cell viability, 120 hours incubation)
10 nM | Cc1nc2cc(S(=O)(=O)N(C)c3ccc([C@H]4C[C@](C)(O)C[C@@H](C(=O)Nc5ccc(C(F)(F)F)cc5F)[C@@H]4C(=O)O)cc3)ccc2n1C (racemic) [Example 357, rac-(1R,2R,4S,6S)-2-((2-fluoro-4-(trifluoromethyl)phenyl)carbamoyl)-4-hydroxy-4-methyl-6-(4-((N,1,2-trimethyl-1H-benzo[d]imidazole)-5-sulfonamido)phenyl)cyclohexane-1-carboxylic acid] | 1 µM | –
6.31 nM | CCO[C@@H]1CC[C@@H](C(=O)Nc2ccc(C(F)(F)F)cc2F)[C@H](C(=O)O)[C@H]1c1ccc(N(C)S(=O)(=O)c2ccc3c(c2)nc(C)n3C)cc1 (racemic) [Example 371, rac-(1R,2S,3R,6R)-3-ethoxy-6-((2-fluoro-4-(trifluoromethyl)phenyl)carbamoyl)-2-(4-((N,1,2-trimethyl-1H-benzo[d]imidazole)-5-sulfonamido)phenyl)cyclohexane-1-carboxylic acid] | 1 µM | –
1.58 nM | [2H]C([2H])([2H])O[C@@H]1C[C@H](C(=O)Nc2ccc(C(F)(F)F)cc2F)[C@@H](C(=O)O)[C@H](c2ccc(N(C)S(=O)(=O)c3ccc4c(c3)nc(C)n4C)cc2)C1 (relative stereo) [Example 149, rel-(1R,2R,4R,6S)-2-((2-fluoro-4-(trifluoromethyl)phenyl)carbamoyl)-4-methoxy-6-(4-((N,1,2-trimethyl-1H-benzo[d]imidazole)-5-sulfonamido)phenyl)cyclohexane-1-carboxylic acid] | 0.2 µM | –
251 nM | Cc1nc2cc(S(=O)(=O)N(C)c3ccc([C@H]4C[C@H](N5CCCCC5)C[C@@H](C(=O)Nc5ccc(C(F)(F)F)cc5F)[C@@H]4C(=O)O)cc3)ccc2n1C (relative stereo) [Example 349, rel-(1R,2R,4S,6S)-2-((2-fluoro-4-(trifluoromethyl)phenyl)carbamoyl)-4-(piperidin-1-yl)-6-(4-((N,1,2-trimethyl-1H-benzo[d]imidazole)-5-sulfonamido)phenyl)cyclohexane-1-carboxylic acid] | 12.6 µM | –
158 nM | Cc1nc2cc(S(=O)(=O)N(C)c3ccc([C@H]4CCC[C@@H](C(=O)Nc5ccc(C(F)(F)F)cc5F)[C@@H]4C(=O)O)cc3)ccc2n1C (single isomer, unassigned) [Example 84] | – | 5.3
1.58 nM | CN(c1ccc([C@H]2CCC[C@@H](C(=O)Nc3ccc(C(F)(F)F)cc3F)[C@@H]2C(=O)O)cc1)S(=O)(=O)c1ccc2[nH]cnc2c1 (single isomer, unassigned) [Example 86] | 2.51 µM | –
1.58 nM | Cc1nc2cc(S(=O)(=O)N(C)c3ccc([C@H]4CCC[C@@H](C(=O)Nc5ccc(C(F)(F)F)cc5F)[C@@H]4C(=O)O)cc3)ccc2[nH]1 (single isomer, unassigned) [Example 92] | 0.794 µM | –
1.58 nM | Cc1nc2cc(S(=O)(=O)N(C)c3ccc([C@H]4C[C@@H](O)C[C@@H](C(=O)Nc5ccc(C(F)(F)F)cc5F)[C@@H]4C(=O)O)cc3)ccc2n1C (single isomer, unassigned) [Example 145] | 1.26 µM | –
79.4 nM | [2H]C([2H])([2H])O[C@@H]1C[C@H](c2ccc(N(C)S(=O)(=O)c3ccc4c(c3)nc(C)n4C)cc2)[C@@H](C(=O)O)[C@H](C(=O)Nc2ccc(C(F)(F)F)cc2F)C1 (single isomer, unassigned) [Example 147] | 12.6 µM | –
50.1 nM | Cc1nc2cc(S(=O)(=O)N(C)c3ccc([C@@H]4CCC[C@H](C(=O)Nc5ccc(C(F)(F)F)cc5F)[C@H]4C(=O)O)nc3)ccc2n1C (single isomer, unassigned) [Example 160] | 15.8 µM | –
2 nM | Cc1nc2cc(S(=O)(=O)N(C)c3ccc([C@@H]4CCC[C@H](C(=O)Nc5ccc(C(F)(F)F)cc5F)[C@H]4C(=O)O)cc3C#N)ccc2n1C (single isomer, unassigned) [Example 162] | 3.16 µM | –
